From patent US8193186B2, “Pyridopyrazines and the use thereof as kinase inhibitors” (AEterna Zentaris GmbH, priority 2003, dated 2012)
Counter-ions that a name gives are not always drawn. Like-named read-outs stand apart in the source and are kept apart here.

Tests used:
c-Raf-Mek-Erk cascade = assay: c-Raf-Mek-Erk ELISA (cell-free reconstituted kinase cascade, Erk phosphorylation); assay type: biochemical, human
Method: The inhibitory effect on the following human serine/threonine and tyrosine kinases of the compounds of the invention was tested in conventional kinase assays: PKB/Akt1, c-Raf-Mek-Erk, B-Raf-Mek-Erk, Mek-Erk, MAPKs, PDGFRbeta, Flt-3, c-Kit, c-Abl, KDR, FGFR1 and IGF1R. Both the full-length kinases and truncated fragments—but at least the cytoplasmic kinase domains—were employed. The kinases were prepared as recombinant fusion proteins with GST (glutathion S-transferase) or HIS Tag in Sf9 cell culture. Depending on the substrate type, the various kinase reactions were carried out in sandwich ELISA formates or by means of a simple substrate adsorption assay on 96-well Flashplates (Perkin Elmer).
The testing on substances on the c-Raf-Mek-Erk cascade is described in detail below. Selected test results for the c-Raf-Mek-Erk assays are then listed.
Procedure: c-Raf-Mek-Erk ELISA
Potential inhibitors were firstly investigated at a concentration of 20 μg/ml in initial single-dose determinations on 96-well microtiter plates (MTPs). Substances with >70% inhibition were employed for dose-response studies.
Reconstitution of the c-Raf-Mek-Erk cascade was quantified with the aid of a cell-free ELISA.
A typical kinase assay was carried out in a final volume of 50 μl with in each case 20-150 ng of Raf, Mek, Erk protein, 1 mM ATP, 10 mM MgCl2, 150 mM NaCl, 25 mM beta-glycerophosphate, 25 mM Hepes pH 7.5. Before the kinase reaction, the test substances were each preincubated singly with each of the three kinase proteins at room temperature for 30 minutes. For the kinase reaction, the kinases preincubated with test substance were combined and incubated at 26° C. for 30 minutes. The reaction was stopped by a final concentration of 2% SDS and 10 minutes at 50° C. in a heating block.
For the immunodetection, the reaction mixtures were transferred to 96-well MTPs coated with anti-Erk Ab(K-23, Santa Cruz Biotechnology, incubated at room temperature for 60 minutes and washed 3× with TBST. Anti-phospho-Erk Ab (#9106, New England Biolabs) 1:500 in 50 μl of TBST/1% BSA, was added and incubated at 4° C. overnight. After the MTPs had been washed 3× with TBST, secondary anti-mouse IgG^POD conjugate (#NA931, Pharmacia) 1:2500 was added, incubated at room temperature for 1 h and again washed 3× with TBST. For colorimetric detection of the kinase reaction, 50 μl of OPD (o-phenyldiamine dihydrochloride) chromogen buffer were pipetted into each of the wells and incubated at 37° C. for 30 minutes. The colour reaction was then determined in an ELISA reader at 492 nm.
The experimental determination of dose-response plots took place using the same experimental design with 10 semilogarithmically graded concentrations from 31.6 pM-100 μM. The IC50 values were calculated in GraphPadPrism.

[1] = inhibition of Erk phosphorylation, 1 mM ATP, 10 concentrations 31.6 pM-100 μM, read-out: IC50
[2] = read-out: IC50 values, inhibition of Erk phosphorylation

Row | IC50 (c-Raf-Mek-Erk cascade; [1]) | SMILES | also measured
1 | > 100 µM | CC(C)(C)NC(=S)Nc1ccc2ncc(-c3ccccc3)nc2n1 [Example 10, 1-tert-Butyl-3-(3-phenylpyrido[2,3-b]pyrazin-6-yl)thiourea] | –
2 | ~50 µM | Fc1ccc(NC(=S)Nc2ccc3ncc(-c4ccccc4)nc3n2)cc1 [Example 14, 1-(4-Fluorophenyl)-3-(3-phenylpyrido[2,3-b]pyrazin-6-yl)thiourea] | –
3 | > 100 µM | S=C(NCc1ccccc1)Nc1ccc2ncc(-c3ccccc3)nc2n1 [Example 13, 1-Benzyl-3-(3-phenylpyrido[2,3-b]pyrazin-6-yl)thiourea] | –
4 | ~1 µM | C=CCNC(=S)Nc1ccc2ncc(-c3ccccc3)nc2n1 [Example 1, 1-allyl-3-(3-phenylpyrido[2,3-b]pyrazin-6-yl)thiourea] | –
5 | ~1 µM | C=C(C)CNC(=S)Nc1ccc2ncc(-c3ccccc3)nc2n1 [Example 5, 1-(2-Methylallyl)-3-(3-phenylpyrido[2,3-b]pyrazin-6-yl)thiourea] | –
6 | > 100 µM | COc1ccc(-c2cnc3ccc(NC(=S)Nc4ccc([N+](=O)[O-])cc4)nc3n2)cc1 [Example 9, 1-[3-(4-Methoxyphenyl)pyrido[2,3-b]pyrazin-6-yl]-3-(4-nitrophenyl)thiourea] | –
7 | ~1 µM | C=CCNC(=S)Nc1ccc2ncc(-c3ccc(OC)cc3)nc2n1 [Example 3, 1-Allyl-3-[3-(4-methoxyphenyl)pyrido[2,3-b]pyrazin-6-yl]thiourea] | –

Continued, molecule first:

Row | SMILES | IC50 (c-Raf-Mek-Erk cascade; [1]) | also measured
8 | Cc1ccc(NC(=O)Nc2ccc3ncc(-c4ccccc4)nc3n2)cc1 [Example 33, 1-(3-Phenylpyrido[2,3-b]pyrazin-6-yl)-3-p-tolylurea] | > 100 µM | –
9 | O=C(NCCN1CCOCC1)Nc1ccc2ncc(-c3ccccc3)nc2n1 [Example 35, 1-(2-Morpholin-4-ylethyl)-3-(3-phenylpyrido[2,3-b]pyrazin-6-yl)urea] | 15 µM | –
10 | CNC(=S)Nc1ccc2ncc(-c3ccccc3)nc2n1 [Example 12, 1-Methyl-3-(3-phenylpyrido[2,3-b]pyrazin-6-yl)thiourea] | – | IC50 (c-Raf-Mek-Erk cascade; [2]): 0.4 µM
11 | C=C(C)CNC(=S)Nc1ccc2ncc(-c3ccc(OC)cc3)nc2n1 [Example 7, 1-[3-(4-Methoxyphenyl)pyrido[2,3-b]pyrazin-6-yl]-3-(2-methylallyl)thiourea] | 43 µM | –
12 | C=C(C)CNC(=S)Nc1ccc2ncc(-c3ccc4ccccc4c3)nc2n1 [Example 6, 1-(2-Methylallyl)-3-(3-naphthalen-2-ylpyrido[2,3-b]pyrazin-6-yl)thiourea] | ~100 µM | –
13 | C#CCNC(=S)Nc1ccc2ncc(-c3ccc(O)cc3)nc2n1 [Example 24, 1-[3-(4-Hydroxyphenyl)pyrido[2,3-b]pyrazin-6-yl]-3-prop-2-ynylthiourea] | – | melting point: 350 °C (dec.)
14 | S=C(Nc1ccc2ncc(-c3ccccc3)nc2n1)NC1CC1 [Example 11, 1-Cyclopropyl-3-(3-phenylpyrido[2,3-b]pyrazin-6-yl)thiourea] | 0.9 µM | –
15 | O=[N+]([O-])c1ccc(NC(=S)Nc2ccc3ncc(-c4ccc5ccccc5c4)nc3n2)cc1 [Example 8, 1-(3-Naphthalen-2-ylpyrido[2,3-b]pyrazin-6-yl)-3-(4-nitrophenyl)thiourea] | > 100 µM | –
16 | C=CCNC(=S)Nc1ccc2ncc(-c3ccc4ccccc4c3)nc2n1 [Example 2, 1-Allyl-3-(3-naphthalen-2-ylpyrido[2,3-b]pyrazin-6-yl)thiourea] | 16 µM | –
17 | CC=CNC(=S)Nc1ccc2nc(-c3ccc(O)cc3)c(-c3ccc(O)cc3)nc2n1 [Example 28, 1-[2,3-Bis(4-hydroxyphenyl)pyrido[2,3-b]pyrazin-6-yl]-3-(propenyl)thiourea] | – | melting point: 240 °C (dec.)
18 | C=CCNC(=S)Nc1ccc2ncc(-c3ccc(O)cc3)nc2n1 [Example 4, 1-Allyl-3-[3-(4-hydroxyphenyl)pyrido[2,3-b]pyrazin-6-yl]thiourea hydrochloride] | – | IC50 (c-Raf-Mek-Erk cascade; [2]): 0.4 µM
19 | O=C(Nc1ccc(Cl)c(C(F)(F)F)c1)Nc1ccc2ncc(-c3ccccc3)nc2n1 [Example 34, 1-(4-Chloro-3-trifluoromethylphenyl)-3-(3-phenylpyrido[2,3-b]pyrazin-6-yl)urea] | > 100 µM | –
